According to patent US8999938B2, “Ophthalmic lipophilic drug delivery vehicle formulations” (GNT, LLC, priority 2013, dated 2015):
Where two headings read alike, the source gives them in different places.

Tests used:
[1] = for max soluble concentration: in water
Source text: The solubility of α-2 agonists, in particular, decreases exponentially at an increased pH.

[2] = Source text: Oily vehicles such as castor oil solubilize, but these have poor compliance.

## Cc1cccc([C@H](C)c2cnc[nH]2)c1C [dexmedetomidine]
[1]; pH solution 6.0
  max soluble concentration: 0.195%
[1]; pH solution 6.4
  max soluble concentration: 0.060%
[1]; pH solution 7.0
  max soluble concentration: 0.023%
[1]; pH solution 7.4
  max soluble concentration: 0.015%
[1]; pH solution 8.0
  max soluble concentration: 0.013%
[1]; pH of 4.0 to 6.0
  degree of solubility: very high degree of solubility
[2]
  concentration solubilized in the provided compositions: ≥ 0.15%
